Entries after “also recorded” stand apart in the source; their conditions may differ. Read-outs that look alike come from different tables or passages of the source.
Tests used:
[1] = tested on: p21; assay: Induction of p21 gene and protein expression in macrophages treated with Vpr; type: cell-based, human; conditions: Vpr 6 μg/ml for 3 hr
Experimental: Macrophages were treated with Vpr (6 μg/ml) for 3 hr and found to show increased gene transcription and protein expression for p21 when treated with Vpr (FIG. 7A and FIG. 7B).

[2] = tested on: HIV-1; conditions: for viral replication / HIV-1 growth as determined by p24 levels: oligonucleotide 50 nM, after HIV-1 infection and at refeeding, day 12, vs HIV control without oligo
Experimental: Monocytes are plated in 6 well plates (Corning Costar Corporation, Cambridge, Mass.), at 6×10^6 cells/well or in Lab-Tek chamber slides (Naperville, Ill.) at 1.5×10^6/chamber in Dulbecco's modified Eagle's medium (DMEM) with 2 mM L-glutamine and 10 μg/ml gentamicin (BioWhittaker) or in other suitable vessels. After adherence (4-6 hr at 37° C. and 5% CO2), 10% human AB-serum (Sigma, St. Louis, Mo.) is added to the culture medium. Cells are cultured 5-10 days to allow differentiation into macrophages before being infected with HIV-1BaL TCID50=1000-5000 (Advanced Biotechnologies Inc., Columbia, Md.) or other M tropic (R5) virus for 90 minutes at 37° C. The levels of endotoxin are below the limit of detection in virus preparations. Unbound virus is removed by washing the cells with media and refeeding with complete DMEM containing 10% human serum. Control populations of adherent macrophages are mock-infected and cultured in parallel. Every 3 to 4 days, half the medium is removed for virus assay and replaced with fresh complete medium for two weeks. Supernatant p24 antigen is assayed using the p24 core profile enzyme-linked immunosorbent assay (ELISA) kit (Perkin-Elmer Life Sciences, Wilmington, Del.). […] Additionally, macrophages are treated with p21 anti-sense phosphorothioate oligonucleotides:

[3] = tested on: CD4 and CCR5; assay: Macrophage CD4 and CCR5 expression; type: cell-based, human
Experimental: Macrophages were also treated with p21 siRNA duplexes (5 nM) five days prior to HIV infection and the effect on HIV-growth was determined (% of positive HIV control, no siRNA treatment) (representative experiment, n=3) (FIG. 6B). The percent of HIV-1 infection was determined comparing the p24 levels in untreated vs oligo or siRNA treated macrophages. Cells treated with p21 and negative control siRNA (5 days) were also analyzed by flow cytometry for CD4 and CCR5 cell surface expression (FIG. 6C). Nested PCR was employed in order to detect pro-viral DNA on days 1 and 3 after HIV-1BaL infection in macrophages treated with p21 or control siRNA or negative control si RNA. Control represents uninfected cells (FIG. 6D).

[4] = tested on: p21 (CDKN1A); assay: p21 (CDKN1A) gene expression in HIV-1 infected macrophages (ribonuclease protection assay); type: cell-based, human; conditions: for human p21 expression: murine-derived antisense sequences tested in human macrophages
From the text: Total cellular RNA is extracted from adherent control or infected monocytes with the RNeasy minikit (Qiagen, Valencia, Calif.) and analyzed by northern blot (Wahl, S. M. et al. (1998) “MYCOBACTERIUM AVIUM COMPLEX AUGMENTS MACROPHAGE HIV-1 PRODUCTION AND INCREASES CCR5 EXPRESSION. Proc Natl Acad Sci USA 95:12574-12579) using an HIV-full length probe (NIH AIDS Research and Reference Reagent Program) and GAPDH (glyceraldehyde-3-phosphate dehydrogenase) (Gibco BRL, Gaithersburg, Md.). For the RPA 3 μg of RNA is evaluated using the hStress tRiboquant Multi-Probe RPA system (BD Pharmingen, San Diego, Calif.) and densities are normalized to the GAPDH gene using ImageQuant (Molecular Dynamics, Sunnyvale, Calif.)

[5] = tested on: macrophages; assay: Macrophage cell viability / cell number, morphology and ultrastructural analysis; conditions: for cell viability (cell number, morphology, ultrastructural analysis): infected or uninfected macrophage cultures treated with oligonucleotides
Experimental: To determine whether the increased p21 influenced viral life cycle, the cells are treated with two distinct p21 anti-sense oligonucleotides (SEQ ID NO. 7 and SEQ ID NO. 9).

[6] = tested on: HIV-1; assay: Transmission electron microscopy (ultrastructural analysis) of HIV-1 infected macrophages; type: cell-based; conditions: day 12; ≧200 cells/treatment condition
From the text: Gluteraldehyde-fixed uninfected and infected cells are postfixed in OsO4, dehydrated through graded ethanol and propylene oxide, embedded in Spurr's epoxy, and thick- and thin-sectioned. Thin sections are placed on copper grids, stained with uranyl acetate and lead citrate, and viewed in a Zeiss EM10 microscope (LEO Electron Microscope; Oberkochen, Germany).

[7] = tested on: p21 (CDKN1A); assay: p21 protein levels in macrophages; type: cell-based, human; conditions: concomitant with reducing HIV infection
Experimental: Uninfected and HIV-1 infected macrophages that have been cultured for twelve days are washed twice with PBS, fixed with 2% paraformaldehyde in PBS, washed and incubated in 100 mM glycine in PBS for 20 min, followed by 0.5% Triton-X-100 for 10 min and rinsed with PBS. Cells are then labeled with rabbit anti-p21 antibody at 5 μg/ml (Santa Cruz Biotechnology, Santa Cruz, Calif.) in PBS containing 5% donkey serum (Jackson ImmunoResearch Laboratories, Inc., West Grove, Pa.) for 1 hr, washed extensively, then incubated with Texas-Red conjugated secondary antibody at 3 μg/ml at room temperature (Molecular Probes, Eugene, Oreg.). Non-specific background is determined using an irrelevant rabbit isotype control antibody and secondary antibody alone at the same concentrations above. Images are captured using a Leica TCS-4D confocal microscope system with a Kr—Ar laser on a DMR upright microscope using a 40×, 1.0 numerical aperture objective. Fluorescence intensity analysis is performed using confocal microscopy and Metamorph analysis (Universal Imaging, Downington, Pa.). […]

Vpr: HIV-1 Vpr gene product, added to macrophages at 6 μg/ml
p21 gene transcription [1]: increased
p21 protein expression [1]: increased

5′-ACATCACCAGGATTGGACAT-3′ (all phosphorothioate, sugars by position and methylation of C not given here; listed as Mus musculus) [SEQ ID NO. 9]
viral replication / HIV-1 growth as determined by p24 levels [2]: reduce viral replication; also recorded: inhibit HIV-1 growth
effect on macrophage CD4 and CCR5 [3]: no direct effect
human p21 expression [4]: effective in inhibiting
cell viability (cell number, morphology, ultrastructural analysis) [5]: no negative effect

5′-TGGATCCGACATGTCAGA-3′ [SEQ ID NO. 14]
viral replication / HIV-1 growth as determined by p24 levels [2]: not
viral replication / HIV-1 growth as determined by p24 levels ([2]; listed as SEQ ID NO. 13): did not suppress

CC1(C)CC[C@]2(C(=O)O)CC[C@]3(C)[C@H](C(=O)C=C4[C@@]5(C)C=C(C#N)C(=O)C(C)(C)[C@@H]5CC[C@]43C)[C@@H]2C1 [CDDO]
release of the viral protein p24 Ag ([2]; added prior to, or at the time of, infection of macrophages with HIV-1, CDDO 0.1 μM): dose dependent suppression
levels of detectable virus ([2]; macrophages infected with HIV-1): dramatically reduced
viral replication as quantitated by p24 levels ([2]; macrophages pre-treated 45 min, then infected with HIV-1BaL, compared with DMSO control and untreated cells, day 10, n=3, P=0.01): reduced viral replication
detectable virions (TEM) [6]: absence or near absence of detectable virions
numbers of infected cells (ultrastructural analysis, TEM) [6]: dramatically reduced numbers of infected cells
p21 protein levels [7]: variably decrease
p21 transcription by ribonuclease protection assay ([4]; HIV-1 infected macrophages, day 12 post-infection, mean, n=2): reduced p21 transcription
cell viability or cell number ([5]; HIV-1 infected macrophages treated with CDDO or di-CDDO): Without reducing cell viability or cell number

5′-TGTCAGGCTGGTCTGCCTCC-3′ (all phosphorothioate, sugars by position and methylation of C not given here; listed as Mus musculus) [SEQ ID NO. 7]
viral replication / HIV-1 growth as determined by p24 levels [2]: reduce viral replication; also recorded: inhibit HIV-1 growth
effect on macrophage CD4 and CCR5 [3]: no direct effect
human p21 expression [4]: effective in inhibiting
cell viability (cell number, morphology, ultrastructural analysis) [5]: no negative effect

Source: patent US8288439B2, “Methods and compositions for the inhibition of HIV-1 replication” (The United States of America, as represented by the …, priority 2003, dated 2012)
